A short description of data set [1]: Metabolic stability in (human) liver microsomes. To be noted: pH 7.4. For orientation: Liver microsomes are a subcellular fraction often used to study metabolism.
The target of data set [2] is Human GLP-1R (Homo sapiens, UniProt P43220). The data set is described as follows: GLP-1R agonist activity, HTRF cAMP detection in 293A GFP-GLP-1R cells. To be noted: for Emax: 293A. Also noted: Emax: dose or concentration left out as unconfirmed. In general terms: TR-FRET usually uses a lanthanide donor and a delayed reading to cut background.
Chain of Human GLP-1R (P43220 24-463): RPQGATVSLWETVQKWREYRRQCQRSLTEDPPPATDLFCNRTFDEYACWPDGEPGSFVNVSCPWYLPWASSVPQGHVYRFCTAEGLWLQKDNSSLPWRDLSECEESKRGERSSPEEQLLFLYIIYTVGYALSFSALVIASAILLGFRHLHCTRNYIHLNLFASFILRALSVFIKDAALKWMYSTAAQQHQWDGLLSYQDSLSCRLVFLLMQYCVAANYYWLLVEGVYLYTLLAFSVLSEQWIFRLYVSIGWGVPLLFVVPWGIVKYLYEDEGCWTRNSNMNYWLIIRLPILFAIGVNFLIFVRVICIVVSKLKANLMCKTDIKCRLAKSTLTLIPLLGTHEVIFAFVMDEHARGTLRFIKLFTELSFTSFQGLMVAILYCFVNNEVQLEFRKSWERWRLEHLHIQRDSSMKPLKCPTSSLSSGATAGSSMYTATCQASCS
Procedure: GLP-1R-mediated agonist activity was determined by cell-based assays using a homogeneous time-resolved fluorescence (i.e., HTRF)-based cAMP detection kit, which measures the level of cAMP in cells. The method was a competitive immunoassay. It enabled direct pharmacological characterization of compounds acting on Gs-coupled receptors in adherent or suspending cells.
The standard curve of native cAMP or unlabeled cAMP produced by cells competed with d2-labeled cAMP red receptors to bind monoclonal anti-cAMP Eu3+ cryptate donors, and the specific signal was inversely proportional to the concentration of cAMP in standard or tested samples.
Human GLP-1R encoding sequence (NCBI reference sequence NP_002053.3) was subcloned into pEGFP-N1 (tsingke), and the cell line stably expressing the receptor was isolated. The expression density of GLP-1R was confirmed by the expression of GFP observed under a fluorescence microscope.
Cells were collected from a T25 tissue culture flask and centrifuged at room temperature at 1000 rpm for 5 minutes. The cell precipitates were then re-suspended in 1 mL of the stimulating buffer. 20 μL sample of cell suspension was counted on a counter STAR IC 1000 to determine the cell viability and the cell count per mL. The remaining cell suspension was then regulated with the stimulating buffer to deliver 2000 living cells per well using a multi-channel pipette. 5 μL of the cell suspension was added to each well of the plate which already contained the compound. The plate was sealed and incubated at 37° C. with 5% CO2 for 30 minutes.
After 30 minutes of incubation, 5 μL of d2-labeled cAMP and 5 μL of anti-cAMP cryptate (both 1: 20 diluted in the cell lysis buffer) were added to each well of the plate. The plate was then incubated at room temperature for 60 minutes, and the changes of HTRF signal were read with Tecan Spark reader: absorbance values at 340 nm (excitation)/at 615 nm and 665 nm (emission). Raw data were converted into nM cAMP by interpolation from the cAMP standard curve, and the effect in percentage was determined relative to the saturated concentration of the complete agonist GLP-17˜37 (400 nM) contained in each plate. Determination of EC50 was performed based on the agonist dose-response curve, which was analyzed using a four-parameter logical dose-response equation with a curve fitting program.
The test data presented the results in the form of a geometric mean (EC50s) based on the number of repetition times.
In data set [3] the target is hERG potassium channels (Homo sapiens, UniProt Q12809). The data set is described as follows: Inhibition of hERG potassium channels, whole-cell patch clamp in HEK-293-hERG cells. On the technique in general: hERG is a cardiac potassium channel; its block is linked to QT prolongation.
Chain of hERG potassium channels (Q12809 whole entry): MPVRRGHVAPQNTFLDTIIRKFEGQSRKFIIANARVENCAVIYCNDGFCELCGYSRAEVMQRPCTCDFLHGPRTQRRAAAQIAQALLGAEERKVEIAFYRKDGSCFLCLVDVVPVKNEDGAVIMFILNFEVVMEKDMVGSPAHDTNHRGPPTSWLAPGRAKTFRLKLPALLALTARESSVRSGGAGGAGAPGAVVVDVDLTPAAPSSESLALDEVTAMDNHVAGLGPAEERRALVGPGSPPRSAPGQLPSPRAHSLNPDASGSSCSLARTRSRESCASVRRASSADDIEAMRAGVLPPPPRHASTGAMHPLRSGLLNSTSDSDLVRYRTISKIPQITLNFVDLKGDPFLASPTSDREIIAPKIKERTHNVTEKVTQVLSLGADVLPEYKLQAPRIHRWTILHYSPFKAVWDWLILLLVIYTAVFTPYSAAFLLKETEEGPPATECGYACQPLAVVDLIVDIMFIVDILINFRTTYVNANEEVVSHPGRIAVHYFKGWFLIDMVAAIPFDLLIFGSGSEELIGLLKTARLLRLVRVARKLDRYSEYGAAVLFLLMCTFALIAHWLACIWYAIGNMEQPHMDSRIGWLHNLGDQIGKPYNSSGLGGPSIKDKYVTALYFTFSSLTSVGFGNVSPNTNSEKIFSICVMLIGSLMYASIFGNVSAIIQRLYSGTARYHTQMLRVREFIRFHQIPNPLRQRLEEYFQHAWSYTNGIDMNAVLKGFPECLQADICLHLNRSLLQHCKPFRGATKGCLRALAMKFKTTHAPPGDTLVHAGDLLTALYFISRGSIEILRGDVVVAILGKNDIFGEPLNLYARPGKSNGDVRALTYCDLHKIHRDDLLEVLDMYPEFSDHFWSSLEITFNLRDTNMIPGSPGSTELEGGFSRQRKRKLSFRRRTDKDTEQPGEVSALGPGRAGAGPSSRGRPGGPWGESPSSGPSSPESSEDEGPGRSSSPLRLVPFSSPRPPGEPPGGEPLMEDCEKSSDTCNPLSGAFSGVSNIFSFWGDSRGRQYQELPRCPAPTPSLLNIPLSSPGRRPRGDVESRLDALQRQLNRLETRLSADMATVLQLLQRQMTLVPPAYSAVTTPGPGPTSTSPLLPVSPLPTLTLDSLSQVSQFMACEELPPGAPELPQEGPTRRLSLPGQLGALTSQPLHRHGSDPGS

Read-outs that look alike come from different tables or passages of the source.

By half-life is commonly meant how long it takes for the measured level to halve. The EC50 is the concentration giving half of the maximal effect. Broadly, the Emax is the maximal effect, on the per cent scale that the assay sets. In data set [1], `O=C(O)c1ccc2nc(CN3CC=C(c4cccc(OCc5ccc(C(=O)C6CC6)cc5F)n4)CC3)n(C[C@@H]3CCO3)c2c1` [Compound 22, (S)-2-((6-((4-(cyclopropanecarbonyl)-2-fluorobenzyl)oxy)-3′,6′-dihydro-[2,4′-bipyridin]-1′(2′H)-yl)methyl)-1-(oxetan-2-ylmethyl)-1H-benzo[d]imidazole-6-carboxylic acid] had a half-life at 1 μM of 60.1 min. Also, in data set [2], the EC50 is 2.07 nM and the Emax is 83.4%. Moreover, the “hERG (IR)” value in data set [3] (inhibition rate of hERG tail current at 1 μM) was 0.92%. Also, the “hERG (IR)” value in data set [3] (inhibition rate of hERG tail current at 10 μM) came out at 23.50%.
On to `CC(=O)c1ccc(COc2cccc(C3=CCN(Cc4nc5ccc(C(=O)O)cc5n4C[C@@H]4CCO4)CC3)n2)c(F)c1` [Compound 34, (S)-2-((6-((4-acetyl-2-fluorobenzyl)oxy)-3′,6′-dihydro-[2,4′-bipyridin]-1′(2′H)-yl)methyl)-1-(oxetan-2-ylmethyl)-1H-benzo[d]imidazole-6-carboxylic acid], for which, in data set [1], the half-life at 1 μM came out at 14.2 min. In data set [2], the EC50 was 0.7 nM and the Emax came out at 81.5%.
Regarding `CCC(=O)c1ccc(COc2cccc(C3=CCN(Cc4nc5ccc(C(=O)O)cc5n4C[C@@H]4CCO4)CC3)n2)c(F)c1` [Compound 25, (S)-2-((6-((2-fluoro-4-propionylbenzyl)oxy)-3′,6′-dihydro-[2,4′-bipyridin]-1′(2′H)-yl)methyl)-1-(oxetan-2-ylmethyl)-1H-benzo[d]imidazole-6-carboxylic acid], the half-life at 1 μM in data set [1] came out at 25.5 min. In data set [2], this molecule showed an EC50 of 0.95 nM and a maximal response (Emax) of 100%.
Turning to `CC(=O)c1ccc(COc2cccc(C3CCN(Cc4nc5ccc(C(=O)O)cc5n4C[C@@H]4CCO4)CC3)n2)c(C(F)(F)F)c1` [Compound 11, (S)-2-((4-(6-((4-acetyl-2-(trifluoromethyl)benzyl)oxy)pyridin-2-yl)piperidin-1-yl)methyl)-1-(oxetan-2-ylmethyl)-1H-benzo[d]imidazole-6-carboxylic acid], in data set [2], a half-maximal response (EC50) required 42.5 nM and the maximal effect (Emax) came out at 85.5%.
The like results for `COc1cc(C(C)=O)ccc1COc1cccc(C2CCN(Cc3nc4ccc(C(=O)O)cc4n3C[C@@H]3CCO3)CC2)n1` [Compound 12, (S)-2-((4-(6-((4-acetyl-2-methoxybenzyl)oxy)pyridin-2-yl)piperidin-1-yl)methyl)-1-(oxetan-2-ylmethyl)-1H-benzo[d]imidazole-6-carboxylic acid] were, in that order, 0.25 nM and 147%.
As for `CC(C)C(=O)c1ccc(COc2cccc(C3CCN(Cc4nc5ccc(C(=O)O)cc5n4C[C@@H]4CCO4)CC3)n2)c(F)c1` [Compound 43, (S)-2-((4-(6-((2-fluoro-4-isobutyrylbenzyl)oxy)pyridin-2-yl)piperidin-1-yl)methyl)-1-(oxetan-2-ylmethyl)-1H-benzo[d]imidazole-6-carboxylic acid], a half-maximal effect in data set [2] (cAMP level, 293A GFP-GLP-1R cells, 30 min incubation, geometric mean) (EC50) was put at 1.4 nM.
